Reference: the Deep4Chem optical property database
One block for each molecule: values may come before it.

Assay: solvent given as SMILES

absorption maximum (in CCO): 595 nm | absorption maximum (in ClC(Cl)Cl): 601 nm | absorption maximum (in O): 596 nm
Compound: CCOC(=O)c1ccccc1-c1c2ccc(=[N+](CC)CC)cc-2oc2c1c(=O)oc1cc(N(CC)CC)ccc12

absorption maximum (in O): 463 nm
Compound: CC[n+]1c(-c2ccccc2)c2cc(NC(N)=O)ccc2c2ccc(N)cc21

absorption maximum (in ClCCl): 282 nm
Compound: Cn1nc(-c2ccc(C#N)cc2)cc1-c1ccccc1

absorption maximum (in CC#N): 345 nm | absorption maximum (in ClCCl): 362 nm
Compound: O=c1c2cc(I)ccc2nc2n1[B-](F)(F)[n+]1ccccc1-2

Compound: c1csc(-c2ccc(-c3cccs3)s2)c1
absorption maximum (in CC#N): 351 nm | absorption maximum (in ClCCl): 355 nm

Compound: c1ccc(-c2cc(-c3ccc(N4c5ccccc5C(c5ccccc5)(c5ccccc5)c5ccccc54)cc3)nc(-c3ccccc3)n2)cc1
absorption maximum (in Cc1ccccc1): 368.88 nm

absorption maximum (in ClC(Cl)Cl): 574 nm
Compound: CCCCCCCCCCCCSc1cc2c3c(ccc4c5c(SCCCCCCCCCCCC)cc6c7c(ccc(c1c34)c75)C(=O)N(C1CCCCC1)C6=O)C(=O)N(C1CCCCC1)C2=O

absorption maximum (in CCO): 678 nm
Compound: CCN(C(C)=O)c1cc2c(cc1C)C(c1ccccc1C(=O)O)=C1CCCC(/C=C/C3=[N+](C)c4ccc5ccccc5c4C3(C)C)=C1O2

absorption maximum (in CO): 695 nm | absorption maximum (in CS(C)=O): 703 nm
Compound: CCC1=C(C)C2=Cc3c4ccccc4c4n3[B-](c3cc[n+](C)cc3)(Oc3ccccc3-4)[N+]2=C1C=Cc1ccc(OC)cc1 (stereo not given)

absorption maximum (in ClCCl): 641 nm
Compound: COC(=O)/C=C/C=C/C1=[N+]2C(=C(c3c(C)cc(C)cc3C)c3ccc(/C=C/C=C/C(=O)OC)n3[B-]2(F)F)C=C1

absorption maximum (in CS(C)=O): 500 nm | absorption maximum (in O): 525 nm | absorption maximum (in OCC(O)CO): 560 nm
Compound: C[n+]1ccc(/C=C/c2ccc(N(c3ccccc3)c3ccc(/C=C/c4cc[n+](C)cn4)cc3)cc2)nc1

absorption maximum (in CO): 430 nm
Compound: C(=C\c1c[nH]cn1)/c1cc[n+]2ccc(/C=C/c3c[nH]cn3)cc2c1

absorption maximum (in C1CCOC1): 340 nm
Compound: O=C(c1ccc(C(=C(c2ccccc2)c2ccccc2)c2ccccc2)cc1)c1ccc(-n2c3ccccc3c3ccccc32)cc1

Compound: N#Cc1c(-n2c3ccc(Cl)cc3c3cc(Cl)ccc32)c(C#N)c(-n2c3ccc(Cl)cc3c3cc(Cl)ccc32)c(-n2c3ccc(Cl)cc3c3cc(Cl)ccc32)c1-n1c2ccc(Cl)cc2c2cc(Cl)ccc21
absorption maximum (in Cc1ccccc1): 384 nm

absorption maximum (in ClCCl): 376 nm
Compound: C[Si]1(C)O[Si](C)(C)c2cc3c(-c4ccccc4)c4cc(Cl)ccc4nc3cc21

Compound: CCCCN1c2ccccc2Sc2cc(/C=C/C3=Nc4ccc5ccccc5c4C3(C)C)ccc21
absorption maximum (in C1CCCCC1): 414 nm | absorption maximum (in C1COCCO1): 417 nm | absorption maximum (in CCOC(C)=O): 416 nm | absorption maximum (in CCOCC): 414 nm | absorption maximum (in Cc1ccccc1): 423 nm

absorption maximum (in CO): 568 nm
Compound: CC1=CC(/C=C/c2ccc(OCCCN=[N+]=[N-])cc2)=[N+]2C1=C(c1ccc(N(C)C)cc1)c1c(C)cc(C)n1[B-]2(F)F

absorption maximum (in ClCCl): 602 nm
Compound: COc1ccc(-c2c3cc4ccccc4cc3c(-c3ccc(OC)cc3)c3cc4ccccc4cc23)cc1

absorption maximum (in CC#N): 309 nm
Compound: Cc1sc(Cl)cc1-c1nc(-c2ccc(Cl)cc2)[nH]c1-c1cc(Cl)sc1C

Compound: CCn1c2ccccc2c2cc(-c3cc(-c4ccc5c(c4)c4ccccc4n5CC)nc(S(C)(=O)=O)n3)ccc21
absorption maximum (in C1CCOC1): 381 nm | absorption maximum (in CCOC(C)=O): 378 nm | absorption maximum (in CN(C)C=O): 384 nm | absorption maximum (in Cc1ccccc1): 382 nm | absorption maximum (in ClCCl): 384 nm

Compound: c1ccc(-c2nc(-c3ccccc3)nc(-c3ccc(-n4c5ccccc5c5ccccc54)cc3)n2)cc1
absorption maximum (in Cc1ccccc1): 364 nm

absorption maximum (in CC#N): 367 nm | absorption maximum (in CCCCCC): 344 nm | absorption maximum (in CO): 365 nm | absorption maximum (in ClC(Cl)Cl): 351 nm
Compound: c1cc2ccc3cccc4c(-c5cc(-c6nccs6)nc(-c6nccs6)c5)cc(c1)c2c34

absorption maximum (in CO): 540 nm
Compound: CCOC(=O)CCCCCn1c2ccc(C)cc2c(=O)c2cc3c(cc21)c(=O)c1cc(C)ccc1n3CCCCCC(=O)OCC

Compound: CN(C)c1ccc2cc3c(cc2c1)OCCN=C3
absorption maximum (in C1CCOC1): 353 nm | absorption maximum (in CC#N): 456 nm | absorption maximum (in CC(C)O): 362 nm | absorption maximum (in CCOC(C)=O): 354 nm | absorption maximum (in CN(C)C=O): 362 nm | absorption maximum (in CS(C)=O): 359 nm | absorption maximum (in Cc1ccccc1): 355 nm | absorption maximum (in ClCCl): 450 nm | absorption maximum (in O): 451 nm

Compound: c1ccc(-c2ccc(-c3ccc(N(c4ccccc4)c4ccccc4)cc3)c3nsnc23)cc1
absorption maximum (in C1CCOC1): 437 nm | absorption maximum (in CC(C)=O): 424 nm | absorption maximum (in CCCCCC): 438 nm | absorption maximum (in CCOCC): 435 nm

absorption maximum (in ClCCl): 400 nm
Compound: c1ccc2c(c1)ccc1ccc3c(c12)-c1c(ccc2ccc4ccccc4c12)C3

absorption maximum (in C1CCOC1): 359 nm | absorption maximum (in C1COCCO1): 360 nm | absorption maximum (in CC#N): 358 nm | absorption maximum (in CC(C)O): 358 nm | absorption maximum (in CCO): 358 nm | absorption maximum (in CCOC(C)=O): 358 nm | absorption maximum (in CN(C)C=O): 361 nm | absorption maximum (in CO): 357 nm | absorption maximum (in CS(C)=O): 364 nm | absorption maximum (in O): 360 nm
Compound: COc1ccc(C2CC(c3ccc(O)cc3)=NN2c2ccc(S(N)(=O)=O)cc2)cc1 (stereo not given)

absorption maximum (in C1CCCCC1): 310 nm | absorption maximum (in CC#N): 304 nm
Compound: Cc1ccc(/C=C/c2ccccc2-[n+]2cc([O-])on2)cc1

Compound: O=S(=O)([O-])c1ccccc1/C=C/c1ccc(-c2nnc(-c3ccc(/C=C/c4ccccc4S(=O)(=O)[O-])cc3)o2)cc1
absorption maximum (in C1CCOC1): 346 nm | absorption maximum (in CC(C)=O): 344 nm | absorption maximum (in CN(C)C=O): 348 nm

absorption maximum (in ClC(Cl)Cl): 295 nm
Compound: O=C1OC(=O)[C@H]2[C@@H]1[C@@H]1C[C@H]2c2c1c(-c1ccccc1)c1ccccc1c2-c1ccccc1

absorption maximum (in C1CCCCC1): 357 nm | absorption maximum (in CC#N): 362 nm | absorption maximum (in CC(C)O): 361 nm | absorption maximum (in CO): 363 nm | absorption maximum (in CS(C)=O): 369 nm | absorption maximum (in ClC(Cl)Cl): 362 nm | absorption maximum (in c1ccccc1): 364 nm
Compound: CN(C)c1ccc2nc(-c3ccccc3)sc2c1

Compound: N#Cc1cc(N2c3ccccc3Oc3ccccc32)c(N2c3ccccc3Oc3ccccc32)cc1C#N
absorption maximum (in c1ccc2c(c1)c1ccccc1n2-c1ccc(-c2ccc(-n3c4ccccc4c4ccccc43)cc2)cc1): 540 nm

Compound: CCCCCC(CC)C1(C(CC)CCCCC)c2ccccc2-c2ccc(C#Cc3cc(C#Cc4ccc5c(c4)C(C(CC)CCCCC)(C(CC)CCCCC)c4ccccc4-5)c4ccc5c(C#Cc6ccc7c(c6)C(C(CC)CCCCC)(C(CC)CCCCC)c6ccccc6-7)cc(C#Cc6ccc7c(c6)C(C(CC)CCCCC)(C(CC)CCCCC)c6ccccc6-7)c6ccc3c4c65)cc21 (stereo not given)
absorption maximum (in C1CCCCC1): 486 nm | absorption maximum (in C1CCOC1): 492 nm | absorption maximum (in CCOC(C)=O): 488 nm | absorption maximum (in CN(C)C=O): 496 nm | absorption maximum (in Cc1ccccc1): 488 nm | absorption maximum (in ClC(Cl)Cl): 491 nm | absorption maximum (in ClCCl): 492 nm

absorption maximum (in ClCCl): 290 nm
Compound: O=P1(c2ccccc2)c2ccccc2-n2cccc21 (stereo not given)

absorption maximum (in ClCCl): 354 nm
Compound: C[Si]1(C)c2ccc(-c3cccs3)cc2C=Cc2cc(-c3cccs3)ccc21

absorption maximum (in CCO): 349 nm
Compound: CCOC(=O)c1cc(C(=O)O)nc2cc(OC)ccc12

absorption maximum (in ClCCl): 343 nm
Compound: ClP1(Cl)=N[P@@](Cl)(Oc2ccc3ccc4cccc5ccc2c3c45)=N[P@@](Cl)(Oc2ccc3ccc4cccc5ccc2c3c45)=N1

absorption maximum (in ClCCl): 400 nm
Compound: c1ccc(N(c2ccccc2)c2ccc(-c3nc4c5ccccc5c5ccccc5c4n3-c3ccccc3)cc2)cc1

absorption maximum (in CS(C)=O): 401 nm
Compound: Cc1ccc(-c2cc(/C=C/c3ccc(N(c4ccccc4)c4ccccc4)cc3)c(C#N)c(N3CCCCC3)c2)cc1

absorption maximum (in ClC(Cl)Cl): 385 nm
Compound: Cc1ccc(C(=O)/N=c2\oc3cccc4c5c(-c6ccccc6)oc6cccc(c(c2-c2ccccc2)c34)c65)cc1

absorption maximum (in CCO): 640 nm | absorption maximum (in CO): 637 nm | absorption maximum (in CS(C)=O): 645 nm | absorption maximum (in O): 634 nm
Compound: CN1/C(=C/C=C(/C=C/C2=[N+](C)c3ccccc3C2(C)C)c2ccccc2)C(C)(C)c2ccccc21

absorption maximum (in C1COCCO1): 344 nm | absorption maximum (in CC#N): 347 nm | absorption maximum (in CO): 347 nm | absorption maximum (in ClCCl): 351 nm
Compound: COC(=O)c1nc2c(N(C)C)nc(N(C)C)nc2n1Cc1ccccc1

Compound: O=c1c2ccccc2n2c3ccccc3c(=O)c3cc(-c4ccccc4)cc1c32
absorption maximum (in CC#N): 447 nm | absorption maximum (in CCCCCC): 437 nm | absorption maximum (in CCCCOCCCC): 440 nm | absorption maximum (in CCOC(C)=O): 443 nm | absorption maximum (in CN(C)C=O): 450 nm | absorption maximum (in Cc1ccccc1): 445.76 nm

absorption maximum (in CCO): 367 nm
Compound: CCOC(=O)/C=C/c1cc2ccc(O)cc2oc1=O

Compound: Cc1ccc(N(c2ccc(C)cc2)c2ccc3c4cccc5c(N(c6ccc(C)cc6)c6ccc(C)cc6)ccc(c6cccc2c63)c54)cc1
absorption maximum (in C1CCCCC1): 506 nm | absorption maximum (in C1CCOC1): 502 nm | absorption maximum (in CC#N): 496 nm | absorption maximum (in Cc1ccccc1): 507 nm | absorption maximum (in ClCCl): 473 nm

absorption maximum (in C1CCOC1): 302 nm
Compound: c1ccc(/C(=C(\c2ccccc2)c2cc(-c3ccc(-c4ccccc4)cc3)ccc2-c2ccc(-c3ccccc3)cc2)c2cc(-c3ccc(-c4ccccc4)cc3)ccc2-c2ccc(-c3ccccc3)cc2)cc1

absorption maximum (in CCO): 600 nm | absorption maximum (in O): 590 nm
Compound: CC/[NH+]=c1\cc2oc3cc(NCCC(=O)NCC(=O)OC)c4ccccc4c3nc-2cc1C

absorption maximum (in ClCCl): 403 nm
Compound: CCCCCCN1C(=O)c2cccc3c(-c4ccc(-c5cc(-c6ccc(OC)cc6)n(-c6ccccc6)n5)s4)ccc(c23)C1=O

absorption maximum (in C1CCCCC1): 395 nm | absorption maximum (in C1CCOC1): 395 nm | absorption maximum (in CC#N): 396 nm | absorption maximum (in CO): 398 nm | absorption maximum (in CS(C)=O): 398 nm | absorption maximum (in ClCCl): 396 nm | absorption maximum (in O): 346 nm
Compound: CC1=N/C(=C\c2ccccc2N(C)C)C(=O)N1C

absorption maximum (in CO): 785 nm
Compound: CC1(C)C(/C=C/C2=C(Cl)C(=C/C=C3/N(Cc4ccc([N+](=O)[O-])cc4)c4ccccc4C3(C)C)/CCC2)=[N+](Cc2ccc([N+](=O)[O-])cc2)c2ccccc21

absorption maximum (in CO): 628 nm | absorption maximum (in ClC(Cl)Cl): 635 nm | absorption maximum (in ClCCl): 637 nm
Compound: CCN1C(=CC2=C([O-])C(=CC3=[N+](CC)c4ccccc4C3(C)C)C2=O)C(C)(C)c2ccccc21

absorption maximum (in ClC(Cl)Cl): 533 nm
Compound: CCOC(CN1C(=O)C2=C(c3cccs3)N(CC(OCC)OCC)C(=O)C2=C1c1cccs1)OCC

absorption maximum (in CO): 457 nm
Compound: BrC1=CN2C[n+]3cc(Br)c4ccccc4c3N=C2c2ccccc21
